# From patent US5086054A, “Novel arylcycloalkanepolyalkylamines” (SRI International, priority 1990, dated 1992)
# “Also recorded” adds a separate entry of the source. Where a name gives a salt, the structure may show the parent alone. Read-outs that look alike come from different tables or passages of the source.
# How the values were obtained:
# [1] = biological target: PCP RECEPTOR; assay: PCP receptor binding assay ([3H]-TCP displacement, brain membranes); design: species or system guinea-pig (male Hartley); conditions: for IC50: read-out: PCP RECEPTOR IC50
# Description: (§1) This example illustrates testing of compounds in receptor binding assays.
# (§2) Frozen brains from male Hartley guinea-pigs were obtained from Pel-Freeze (Rogers, Arkansas).
# (§3) The brains plus cerebella were homogenized in 10 volumes (v/w) of 0.1M, pH 7.4, ice-cold Tris-HCl buffer with a Brinkmann polytron at setting 4 for 20 seconds. The homogenates were centrifuged at 20,000×g for 20 minutes at 4° C. The pellets were suspended in 10 volumes of ice-cold water and, after sitting on ice for 10 minutes, were centrifuged 30 minutes at 20,000×g at 4° C. The resulting pellets were resuspended in the above Tris buffer in ratio 1:100 (w/v) for σ receptor assays or in 5 mM Tris-HCl having pH 7.4, for PCP receptor assays. The final suspension was homogenized with a dounce glass-glass tissue grinder Wheaton "200", at small clearance (B), with three strokes before use. Two milliter aliquots of the brain membrane preparation, containing 1.7 mg of protein, were incubated in quadruplicate for one hour at 23° C. with competing mixture of ligand and radioligand. For σ receptors, [^3 H]-d-SKF-10,047, 2 nM was used. For PCP receptors, [^3 H] TCP [^3 H]-1-[1-(2-thienyl)cyclohexyl]piperidine), 1 nM was used. The nonspecific bindings were defined by 0.1 mM d-SKF-10,047 and 0.1 mM phencyclidine respectively for σ and PCP receptors. After incubation, free ligand was separated from bound ligand by rapid filtration through Whatman GF/C filters. The filters had been soaked before use in isoamyl alcohol-saturated water to prevent nonspecific [^3 H]-d-SKF-10,047 binding to the filter. In the PCP receptor assay, the filter was soaked in 0.5% polyethylenimine to reduce the filter binding of [^3 H]-TCP. After filtration, the trapped tissue was washed three times with 4 ml aliquots of 0.1 M ice-cold Tris buffer at pH 7.4 for σ receptors and 5 mM, ice-cold Tris buffer pH 7.4 for PCP receptors. The filters were transferred to 5 ml of liquid scintillation fluid and the retained radioactivity was measured by liquid scintillation spectrometry.
# Programs in Biomed. 17:107 (1983)].
# [2] = biological target: T1, SIGMA RECEPTOR (Cavia porcellus, UniProt Q60492); assay: Sigma receptor binding assay ([3H]-d-SKF-10,047 displacement, brain membranes); design: species or system guinea-pig (male Hartley)
# T1 construct: Two milliter aliquots of the brain membrane preparation, containing 1.7 mg of protein; tissue Pel-Freeze (Rogers, Arkansas); host or cells: guinea-pig brains plus cerebella, membranes
# T1 sequence (Q60492 whole entry): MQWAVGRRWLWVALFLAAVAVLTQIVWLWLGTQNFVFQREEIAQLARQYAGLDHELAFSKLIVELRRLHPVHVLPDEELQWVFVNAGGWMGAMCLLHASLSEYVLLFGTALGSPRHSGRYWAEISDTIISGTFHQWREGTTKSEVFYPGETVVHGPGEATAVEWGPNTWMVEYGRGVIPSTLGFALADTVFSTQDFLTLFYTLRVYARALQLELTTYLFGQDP
# Description: as §1, §2, §3
# [3] = Table 2, aryl ring substituents
# [4] = Table 2, aryl ring substituents, read-out: SIGMA RECEPTOR IC50
# [5] = Table 1, mean ± error (n), read-out: SIGMA RECEPTOR IC50
# [6] = Table 1, slope of dose response curve
# [7] = SIGMA RECEPTOR IC50, Table 1, mean ± error (n)
# [8] = Table 3, cycloalkyl ring size, read-out: SIGMA RECEPTOR IC50
SMILES,"IC50 [1, 3] [nM]",SIGMA RECEPTOR SLOPE ([2]; Table 2),"IC50 [2, 4] [nM]",potency at PCP receptors (in words) [1],"IC50 ([1]; Table 1, mean ± error (n)) [nM]",potency at σ receptors (in words) [2],"SIGMA RECEPTOR SLOPE [2, 6]",selectivity for σ receptors (in words) [2],also measured
Cc1ccc(C2(CN(C)C)CCCCC2)cc1 [Compound 41],> 25000,0.62 ± 0.03,541,–,–,–,–,–,–
C[N+]1(CCOC(=O)C2(c3ccccc3)CCCCC2)CCCC1 [Compound 9],–,–,–,inactive in the PCP assay; also recorded: did not increase potency for PCP receptors,> 25000,σ receptor potency increased; also recorded: effectively reversed the potency for σ receptors,0.62 ± 0.18,–,"IC50 [2, 5]: 242 nM"
Oc1ccc(C2(CN3CCCC3)CCCCC2)cc1 [Compound 30],> 25000,0.78 ± 0.02,1740,inactive at PCP receptor sites,–,did not improve potency as much as the 3-hydroxy derivative,–,considerably improved selectivity for σ receptors,–
"c1ccc(C2(N3CCOCC3)CCCCC2)cc1 [Compound 10, 4-(1-phenylcyclohexyl)morpholine, reference compound]",–,–,–,–,633 ± 71,–,0.47 ± 0.02,–,"IC50 [2, 7]: 2530 nM"
CN(C)CC1(c2cccc(O)c2)CCCCC1 [Compound 40],> 25000,0.61 ± 0.01,10100,–,–,–,–,–,–
C[N+](C)(C)CCOC(=O)C1(c2ccccc2)CCCCC1 [Compound 20],–,–,–,inactive in the PCP assay; also recorded: did not increase potency for PCP receptors,> 25000,–,1.22 ± 0.15,–,"IC50 [2, 5]: 12300 nM"
Oc1cccc(C2(CN3CCCCC3)CCCCC2)c1 [Compound 21],> 25000,–,> 25000,–,–,diminished binding to σ receptors,–,–,–
CN(C)CC1(c2ccccc2)CCCCC1 [Compound 18],> 25000,0.85 ± 0.07,4130,inactive in the PCP receptor assay,> 25000,increased potency for σ receptors,0.85 ± 0.07,–,"IC50 [2, 5]: 4130 nM"
CCN(CC)CC1(c2ccccc2)CCCCC1 [Compound 14],> 25000,0.66 ± 0.17,–,inactive in the PCP receptor assay,> 25000,increased potency for σ receptors,0.66 ± 0.17,–,"IC50 [2, 5]: 208 nM"
CC[N+](C)(CC)CCOC(=O)C1(c2ccccc2)CCCCC1 [Compound 16],–,–,–,inactive in the PCP assay; also recorded: did not increase potency for PCP receptors,> 25000,σ receptor potency increased; also recorded: effectively reversed the potency for σ receptors,0.86 ± 0.07,–,"IC50 [2, 5]: 2230 nM"
"O=C(OCCN1CCCC1)C1(c2ccccc2)CC1 [Compound 47, 2-(1-Pyrrolidino)ethyl 1-Phenylcyclopropane-1-carboxylate hydrochloride]",–,–,–,–,–,–,–,–,"IC50 ([1]; Table 3, cycloalkyl ring size): > 25000 nM; SIGMA RECEPTOR SLOPE ([2]; Table 3): 0.78 ± 0.09; IC50 [2, 8]: 1460 nM"
Cc1ccc(C2(CN3CCCCC3)CCCCC2)cc1 [Compound 23],> 25000,0.69 ± 0.01,223,–,–,slightly lower σ receptor potencies,–,substantially increases selectivity for σ receptors,–
COc1ccc(C2(CN3CCCC3)CCCCC2)cc1 [Compound 34],> 25000,0.80 ± 0.07,546,inactive at PCP sites,–,somewhat potent,–,very selective for σ receptors,–
COc1ccc(C2(CN3CCCC3)CCCCC2)cc1OC [Compound 35],> 25000,0.66 ± 0.07,1320,–,–,poor to reasonable potency at σ sites,–,high selectivity for σ receptors,–
Clc1cccc(C2(CN3CCCC3)CCCCC2)c1 [Compound 32],867 ± 9,0.73 ± 0.16,248,–,–,–,–,–,–
COc1cccc(C2(CN3CCCCC3)CCCCC2)c1 [Compound 26],> 25000,0.74 ± 0.07,326,–,–,slightly lower σ receptor potencies,–,substantially increases selectivity for σ receptors,–
O=[N+]([O-])c1ccc(C2(CN3CCCCC3)CCCCC2)cc1 [Compound 24],> 25000,0.47 ± 0.06,249,–,–,slightly lower σ receptor potencies,–,substantially increases selectivity for σ receptors,–
"CN(C)C1(c2ccccc2)CCCCC1 [Compound 17, N,N-dimethyl-1-phenylcyclohexylamine, reference compound]",–,–,–,–,242 ± 8,–,0.53 ± 0.05,–,"IC50 [2, 7]: 1950 nM"
c1ccc(C2(CN3CCCCC3)CCCCC2)cc1 [Compound 2],1830,0.66 ± 0.1,–,reduced the potency in the PCP receptor assay,1830,increased the potency of the compound in the σ receptor assay,0.66 ± 0.1,–,"IC50 ([1]; Table 3, cycloalkyl ring size): 1830 nM; decreased potency for PCP receptors ([1]; relative to PCP (1)): approximately 40 times; SIGMA RECEPTOR SLOPE ([2]; Table 3): 0.66 ± 0.01; IC50 [2, 8]: 104 nM; increased potency for σ receptors ([2]; relative to PCP (1)): about 80 times"
c1ccc(C2(CN3CCCC3)CCCCC2)cc1 [Compound 6],–,0.88 ± 0.07,4750,already inactive at PCP receptors,1270,increased potency for σ receptors,0.88 ± 0.07,–,"IC50 [2, 5]: 4740 nM"
COc1ccc(C2(CN3CCOCC3)CCCCC2)cc1OC [Compound 38],> 25000,–,> 25000,essentially inactive in both σ and PCP binding assays,–,essentially inactive in both σ and PCP binding assays,–,–,–
c1ccc(C2(CN3CCCCC3)CCCC2)cc1 [Compound 44],–,–,–,–,–,–,–,–,"IC50 ([1]; Table 3, cycloalkyl ring size): > 25000 nM; SIGMA RECEPTOR SLOPE ([2]; Table 3): 1.03 ± 0.04; IC50 [2, 8]: 995 nM"
c1ccc(C2(CCN3CCCC3)CCCCC2)cc1 [Compound 7],–,–,–,decreased the potency in the PCP receptor assay,1720,–,1.22 ± 0.03,–,"IC50 [2, 5]: 141 nM; increased potency for σ receptors ([2]; relative to PCPY (5)): approximately 30 fold"
Oc1cccc(C2(CN3CCOCC3)CCCCC2)c1 [Compound 36],> 25000,–,> 25000,–,–,–,–,–,–
O=[N+]([O-])c1ccc(C2(CN3CCCC3)CCCCC2)cc1 [Compound 31],> 25000,0.65 ± 0.05,282,inactive at PCP sites,–,somewhat potent,–,very selective for σ receptors,–
Oc1cccc(C2(CN3CCCC3)CCCCC2)c1 [Compound 29],1320,0.80 ± 0.07,1080,–,–,only slight effect on σ receptor potency,–,selectivity for σ receptors was poor,–
COc1ccc(C2(CN3CCCCC3)CCCCC2)cc1OC [Compound 28],> 25000,0.56 ± 0.03,387 ± 18,–,–,slightly lower σ receptor potencies; also recorded: poor to reasonable potency at σ sites,–,substantially increases selectivity for σ receptors; also recorded: high selectivity for σ receptors,–
COc1ccc(C2(CN(C)C)CCCCC2)cc1OC [Compound 43],> 25000,0.66 ± 0.13,9050,–,–,poor to reasonable potency at σ sites,–,high selectivity for σ receptors,–
COc1cccc(C2(CN3CCOCC3)CCCCC2)c1 [Compound 37],> 25000,–,> 25000,–,–,–,–,–,–
